Results: ChEMBL document CHEMBL1201862, “PubChem BioAssay data set” (2004)
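Cells were grown in 96-well plates and exposed to each compound for 48 hours at five concentrations; endpoints were interpolated linearly between bracketing concentrations, or set to the highest concentration if not reached. At the GI50, growth is halved.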 Calls of active or inactive are those of the source. Rule as the data show it: active = GI50 up to about 1.1 µM and inactive = higher.

Columns and labels:
Assay in all cases: growth of human tumour cells (NCI), 48 h
MDA-MB-231 = test system: MDA-MB-231
CCRF-CEM = test system: CCRF-CEM
SK-MEL-28 = test system: SK-MEL-28
SNB-75 = test system: SNB-75
OVCAR-5 = test system: OVCAR-5
MDA-N = test system: MDA-N
PC-3 = test system: PC-3
SW-620 = test system: SW-620
A498 = test system: A498
MOLT-4 = test system: MOLT-4
U-251 = test system: U-251
HT-29 = test system: HT-29
SK-OV-3 = test system: SK-OV-3
HL-60 = test system: HL-60
OVCAR-8 = test system: OVCAR-8
CAKI-1 = test system: CAKI-1
SK-MEL-2 = test system: SK-MEL-2
T47D = test system: T47D
SF-295 = test system: SF-295
UACC-257 = test system: UACC-257

Row | Compound | GI50 (MDA-MB-231) | GI50 (CCRF-CEM) | GI50 (SK-MEL-28) | GI50 (SNB-75) | GI50 (OVCAR-5) | GI50 (MDA-N) | GI50 (PC-3) | GI50 (SW-620) | GI50 (A498) | GI50 (MOLT-4) | GI50 (U-251) | GI50 (HT-29) | GI50 (SK-OV-3) | GI50 (HL-60) | GI50 (OVCAR-8) | GI50 (CAKI-1) | GI50 (SK-MEL-2) | GI50 (T47D) | GI50 (SF-295) | GI50 (UACC-257)
1 | C/C(=N\NC(=S)NCCNC(=S)N/N=C(\C)c1ccccn1)c1ccccn1 | > 20.9 µM (inactive) | 1.28 µM (inactive) | 4.75 µM (inactive) | 1.73 µM (inactive) | 3.98 µM (inactive) | 4.51 µM (inactive) | 3.07 µM (inactive) | 5.04 µM (inactive) | 4.44 µM (inactive) | 2.15 µM (inactive) | 2.43 µM (inactive) | 2.07 µM (inactive) | 4.7 µM (inactive) | 0.789 µM (active) | 1.56 µM (inactive) | 3.42 µM (inactive) | 1.82 µM (inactive) | 4.43 µM (inactive) | 3.45 µM (inactive) | 2.61 µM (inactive)
2 | C/C1=C\CC[C@@]2(C)O[C@@H]2C[C@@H]2[C@H](C/C(C)=C/CC1)OC(=O)C21CC1 | > 100 µM (inactive) | 20.6 µM (inactive) | > 100 µM (inactive) | > 100 µM (inactive) | > 100 µM (inactive) | 91.4 µM (inactive) | > 100 µM (inactive) | 60.7 µM (inactive) | > 100 µM (inactive) | 21.7 µM (inactive) | 28.8 µM (inactive) | > 100 µM (inactive) | > 100 µM (inactive) | 24.2 µM (inactive) | > 100 µM (inactive) | > 100 µM (inactive) | > 100 µM (inactive) | > 100 µM (inactive) | > 100 µM (inactive) | > 100 µM (inactive)
3 | CCOC(=O)/C(=N\Nc1ccc(-n2c(C)nc3ccccc3c2=O)cc1)C(C)=O | > 100 µM (inactive) | 40.3 µM (inactive) | 20.3 µM (inactive) | 17.2 µM (inactive) | > 100 µM (inactive) | 29 µM (inactive) | 34.8 µM (inactive) | 61.5 µM (inactive) | 99.3 µM (inactive) | 13.5 µM (inactive) | > 100 µM (inactive) | 53.6 µM (inactive) | 74 µM (inactive) | 14 µM (inactive) | 19.6 µM (inactive) | > 100 µM (inactive) | 54.5 µM (inactive) | 21 µM (inactive) | 33 µM (inactive) | 26.4 µM (inactive)
4 | CCc1ccc2nccc(NCCCN(C)C)c2c1[N+](=O)[O-] | 56.1 µM (inactive) | > 100 µM (inactive) | > 100 µM (inactive) | 50 µM (inactive) | 33.5 µM (inactive) | 64.7 µM (inactive) | 70 µM (inactive) | > 100 µM (inactive) | > 100 µM (inactive) | > 100 µM (inactive) | > 100 µM (inactive) | 33.4 µM (inactive) | > 100 µM (inactive) | > 100 µM (inactive) | > 100 µM (inactive) | 46.6 µM (inactive) | > 100 µM (inactive) | > 100 µM (inactive) | 75.7 µM (inactive) | 32.3 µM (inactive)
5 | O=[N+]([O-])C(=C/c1cccs1)/C(=C\c1cccs1)[N+](=O)[O-] | 0.44 µM (active) | 0.0263 µM (active) | 0.395 µM (active) | 9.46 µM (inactive) | 1.68 µM (inactive) | 0.423 µM (active) | 0.575 µM (active) | 0.348 µM (active) | 1.64 µM (inactive) | 0.157 µM (active) | 0.397 µM (active) | 1.12 µM (inactive) | 2.89 µM (inactive) | 0.0246 µM (active) | 0.342 µM (active) | 0.465 µM (active) | 1.75 µM (inactive) | 1.68 µM (inactive) | 1.96 µM (inactive) | 1.29 µM (inactive)
6 | CSC1=NC(=O)CCN1C1OCC(OC(C)=O)C(OC(C)=O)C1OC(C)=O (stereo not given) | 12.4 µM (inactive) | 5.9 µM (inactive) | 16.1 µM (inactive) | 14.7 µM (inactive) | 19.6 µM (inactive) | > 10 µM (inactive) | 15 µM (inactive) | 18.3 µM (inactive) | 15.6 µM (inactive) | 4.66 µM (inactive) | 15.8 µM (inactive) | 17.9 µM (inactive) | 15.2 µM (inactive) | 2.99 µM (inactive) | 15.8 µM (inactive) | 24.7 µM (inactive) | 13.6 µM (inactive) | 16.8 µM (inactive) | 20.1 µM (inactive) | 18.4 µM (inactive)
7 | N#CC(c1ccccc1)N1CCCN(C(C#N)c2ccccc2)C1c1ccccc1O (stereo not given) | > 100 µM (inactive) | 40.1 µM (inactive) | > 100 µM (inactive) | > 100 µM (inactive) | > 100 µM (inactive) | > 100 µM (inactive) | > 100 µM (inactive) | > 100 µM (inactive) | > 100 µM (inactive) | 61.1 µM (inactive) | > 100 µM (inactive) | 55.8 µM (inactive) | > 100 µM (inactive) | 0.0362 µM (active) | > 100 µM (inactive) | > 100 µM (inactive) | > 100 µM (inactive) | > 100 µM (inactive) | > 100 µM (inactive) | > 100 µM (inactive)
8 | CC1=NN(C(=O)CC(=O)Nc2ccc(C)cc2)C(=O)C1/N=N\c1ccc(S(=O)(=O)c2ccc(/N=N/C3C(=O)N(C(=O)CC(=O)Nc4ccc(C)cc4)N=C3C)cc2)cc1 (stereo not given) | 35.6 µM (inactive) | 9.4 µM (inactive) | > 100 µM (inactive) | > 100 µM (inactive) | > 100 µM (inactive) | 69.7 µM (inactive) | 72.4 µM (inactive) | 32.7 µM (inactive) | > 100 µM (inactive) | 42.5 µM (inactive) | 52.1 µM (inactive) | > 10 µM (inactive) | 72.4 µM (inactive) | 16.4 µM (inactive) | 64.6 µM (inactive) | > 100 µM (inactive) | 58.6 µM (inactive) | > 100 µM (inactive) | > 100 µM (inactive) | > 100 µM (inactive)
9 | Cc1[nH]c2ccccc2c1/C=N/c1ccc(/N=C/c2c(C)[nH]c3ccccc23)cc1 | 32.5 µM (inactive) | 15.4 µM (inactive) | 97.5 µM (inactive) | 48.3 µM (inactive) | > 100 µM (inactive) | 30.5 µM (inactive) | 50.4 µM (inactive) | 22.9 µM (inactive) | 52.1 µM (inactive) | 18.9 µM (inactive) | 29.6 µM (inactive) | 34 µM (inactive) | 49.8 µM (inactive) | 14.7 µM (inactive) | 29.7 µM (inactive) | 38.7 µM (inactive) | 23.9 µM (inactive) | 25.4 µM (inactive) | 40.6 µM (inactive) | 67.3 µM (inactive)
10 | CS(=O)(=O)CS(=O)(=O)OCCCl | 296 µM (inactive) | 47 µM (inactive) | 490 µM (inactive) | 46.8 µM (inactive) | 621 µM (inactive) | 107 µM (inactive) | 348 µM (inactive) | 115 µM (inactive) | 527 µM (inactive) | 96.2 µM (inactive) | 72.3 µM (inactive) | 427 µM (inactive) | 167 µM (inactive) | 136 µM (inactive) | 191 µM (inactive) | 207 µM (inactive) | 304 µM (inactive) | 218 µM (inactive) | 60.8 µM (inactive) | 169 µM (inactive)
